Measurements as given in publication PMC9403987 (Frontiers in Oncology, 2022).

Legend:
Assay in all cases: Cell proliferation assay
Format in all cases: cell-based, Homo sapiens
NCI-H520 = conditions: NCI-H520, lung carcinoma, 72 hours
Protocol: (§1) To quantify cell proliferation, either the nuclei of live cells were counted following staining with 4’,6-diamidino-2-phenylindole (DAPI; Sigma-Aldrich, Burlington, MA, USA), or metabolically active cells were detected using a CellTiter-Glo assay (Promega Corporation, Madison, WI, USA). Cells from a range of human and mammalian tumor cell lines (American Type Culture Collection, Manassas, VA, USA) were seeded at 4000 cells per well in 100 μL of culture medium in a 96-well plate and incubated overnight at 37°C with 5% CO2. […] In the DAPI staining method, cells were washed using 1× phosphate-buffered saline (PBS; Gibco Thermo Fisher Scientific, Waltham, MA, USA), fixed with 4% formaldehyde, permeabilized with 0.2% Triton X-100 (Sigma-Aldrich), washed again, and stained with 1 μg/mL DAPI to visualize cell nuclei. Cells were washed with 1× PBS three times, and 100 μL 1× PBS was added to each well. Plates were scanned using an IN Cell Analyzer 2200 (GE Healthcare Life Sciences, Chicago, IL, USA) and the number of cells per well was recorded. In the CellTiter-Glo assay, 60 μL of CellTiter-Glo luminescent solution was added to each well after incubation with the test compounds, and the assay plate was scanned using a Tecan Infinite M1000 PRO microplate reader (Tecan Group AG, Männedorf, Switzerland) to record luminescent signals.

DLD-2 = conditions: DLD-2, colorectal carcinoma, 72 hours
Protocol: as §1

SNU-387 = conditions: SNU-387, liver, hepatocellular carcinoma, 72 hours
Protocol: as §1

LN229 = conditions: LN229, brain, glioblastoma, 72 hours
Protocol: as §1

MDA-MB-231 = conditions: MDA-MB-231, breast carcinoma, 72 hours
Protocol: as §1

BEL7405 = conditions: BEL7405, liver, hepatocellular carcinoma, 72 hours
Protocol: as §1

HCT8 = conditions: HCT8, colorectal carcinoma, 72 hours
Protocol: as §1

HCCC9810 = conditions: HCCC9810, liver, hepatocellular carcinoma, 72 hours
Protocol: as §1

NCI-H2228 = conditions: NCI-H2228, lung, NSCLC, 72 hours
Protocol: as §1

MCF-7 = conditions: MCF-7, breast carcinoma, 72 hours
Protocol: as §1

MDA-MB-468 = conditions: MDA-MB-468, breast carcinoma, 72 hours
Protocol: as §1

MOG-G-UVW = conditions: brain, grade III astrocytoma, 72 hours
Protocol: as §1

NCI-H1703 = conditions: NCI-H1703, lung, NSCLC, 72 hours
Protocol: as §1

SNU-423 = conditions: SNU-423, liver, hepatocellular carcinoma, 72 hours
Protocol: as §1

SNU-449 = conditions: SNU-449, liver, hepatocellular carcinoma, 72 hours
Protocol: as §1

HLE = conditions: liver, hepatocellular carcinoma, 72 hours
Protocol: as §1

HCT15 = conditions: HCT15, colorectal carcinoma, 72 hours
Protocol: as §1

Hep G2 = conditions: Hep G2, liver, hepatocellular carcinoma, 72 hours
Protocol: as §1

NCI-H1838 = conditions: NCI-H1838, lung, NSCLC, 72 hours
Protocol: as §1

PC-9 = conditions: PC-9, lung carcinoma, 72 hours
Protocol: as §1

T47D = conditions: breast carcinoma, 72 hours
Protocol: as §1

DBTRG-05MG = conditions: brain, glioblastoma, 72 hours
Protocol: as §1

SW948 = conditions: SW948, colon carcinoma, 72 hours
Protocol: as §1

JHH-7 = conditions: JHH-7, liver, hepatocellular carcinoma, 72 hours
Protocol: as §1

SNU-475 = conditions: SNU-475, liver, hepatocellular carcinoma, 72 hours
Protocol: as §1

HCC827 = conditions: HCC827, lung carcinoma, 72 hours
Protocol: as §1

SK-N-BE(2) = conditions: neuroblastoma, 72 hours
Protocol: as §1

A549 = conditions: A549, lung carcinoma, 72 hours
Protocol: as §1

U87/DK = conditions: brain, glioblastoma, 72 hours
Protocol: as §1

SNU-182 = conditions: SNU-182, liver, hepatocellular carcinoma, 72 hours
Protocol: as §1

MCF-10A = conditions: breast, non-malignant mammary epithelial, 72 hours
Protocol: as §1

SK-N-SH = conditions: brain, neuroblastoma, 72 hours
Protocol: as §1

HLF = conditions: lung, epidermoid carcinoma, 72 hours
Protocol: as §1

SNU-886 = conditions: SNU-886, liver, hepatocellular carcinoma, 72 hours
Protocol: as §1

## CCN1CCN(Cc2ccc(Nc3ncc(F)c(-c4cc(F)c5nc(C)n(C(C)C)c5c4)n3)nc2)CC1 [Abemaciclib, abemaciclib, reference compound]
NCI-H520; Homo sapiens
  IC50: 364 nM
DLD-2; Homo sapiens, DLD2
  IC50: 237 nM
SNU-387; Homo sapiens
  IC50: 193 nM
LN229; Homo sapiens, LN-229
  IC50: 35 nM
MDA-MB-231; Homo sapiens
  IC50: 48 nM
BEL7405; Homo sapiens
  IC50: 2140 nM
HCT8; Homo sapiens, HCT-8
  IC50: 384 nM
HCCC9810; Homo sapiens
  IC50: 71 nM
NCI-H2228; Homo sapiens
  IC50: 2070 nM
MCF-7; Homo sapiens, MCF7
  IC50: 6 nM
MDA-MB-468; Homo sapiens
  IC50: 1250 nM
MOG-G-UVW; Homo sapiens
  IC50: 72 nM
NCI-H1703; Homo sapiens
  IC50: 93 nM
SNU-423; Homo sapiens
  IC50: 48 nM
SNU-449; Homo sapiens
  IC50: 159 nM
HLE; Homo sapiens
  IC50: 389 nM
HCT15; Homo sapiens, HCT-15
  IC50: 294 nM
Hep G2; Homo sapiens, HepG2
  IC50: 3200 nM
NCI-H1838; Homo sapiens
  IC50: 90 nM
PC-9; Homo sapiens
  IC50: 457 nM
T47D; Homo sapiens
  IC50: 12 nM
DBTRG-05MG; Homo sapiens
  IC50: 13 nM
SW948; Homo sapiens
  IC50: 586 nM
JHH-7; Homo sapiens, JHH7
  IC50: 1170 nM
SNU-475; Homo sapiens
  IC50: 195 nM
HCC827; Homo sapiens
  IC50: 16 nM
SK-N-BE(2); Homo sapiens, SKNBE2, brain
  IC50: 133 nM
A549; Homo sapiens
  IC50: 104 nM
U87/DK; Homo sapiens
  IC50: 15 nM
SNU-182; Homo sapiens
  IC50: > 10000 nM
MCF-10A; Homo sapiens
  IC50: 1770 nM
SK-N-SH; Homo sapiens
  IC50: 80 nM
HLF; Homo sapiens
  IC50: 4950 nM
SNU-886; Homo sapiens
  IC50: 25 nM

## CC1=Nc2c(F)cc(-c3nc(Nc4ccc(C5CCN(C)CC5)cn4)ncc3F)cc2C12CCCC2 [GLR2007]
NCI-H520
  IC50: 241 nM
DLD-2
  IC50: 33 nM
SNU-387
  IC50: 68 nM
LN229
  IC50: 17 nM
MDA-MB-231
  IC50: 44 nM
BEL7405
  IC50: 1150 nM
HCT8
  IC50: 81 nM
HCCC9810
  IC50: 30 nM
NCI-H2228
  IC50: 2050 nM
MCF-7
  IC50: 2 nM
MDA-MB-468
  IC50: 1940 nM
MOG-G-UVW
  IC50: 43 nM
NCI-H1703
  IC50: 3 nM
SNU-423
  IC50: 19 nM
SNU-449
  IC50: 67 nM
HLE
  IC50: 143 nM
HCT15
  IC50: 43 nM
Hep G2
  IC50: 2550 nM
NCI-H1838
  IC50: 48 nM
PC-9
  IC50: 180 nM
T47D
  IC50: 1 nM
DBTRG-05MG
  IC50: 6 nM
SW948
  IC50: 189 nM
JHH-7
  IC50: 578 nM
SNU-475
  IC50: 85 nM
HCC827
  IC50: 15 nM
SK-N-BE(2); brain
  IC50: 130 nM
A549
  IC50: 66 nM
U87/DK
  IC50: 3 nM
SNU-182
  IC50: 2240 nM
MCF-10A
  IC50: 2730 nM
SK-N-SH
  IC50: 32 nM
HLF
  IC50: 2010 nM
SNU-886
  IC50: 6 nM
